Like-named read-outs stand apart in the source and are kept apart here.
Legend:
[1] = system: HCV genotype 1b (Con-1/lucneo) replicon; assay type: cell-based
Description: (§1) HCV genotype 1b (Con-1/lucneo) and 1a (H77/neo) replicon cells were incubated with serial dilutions of compound (1) 2′C-methyl adenosine (2′CMeA) or IFNα for 3 days in the absence or presence of 40 mg/mL human serum albumin (HSA).

[2] = system: HCV genotype 2a (J6/JFH-Rluc) virus; assay: Huh-7 cells chronically infected with HCV genotype 2a (J6/JFH-Rluc) virus, luciferase assay; assay type: cell-based; conditions: 3 days, absence of HSA
Description: (§2) The antiviral activity of compound (1) against HCV genotype 2a was tested in cells chronically infected with the genotype 2a virus as well as in cells replicating a subgenomic 2a replicon. Huh-7 cells containing chronically replicating HCV genotype 2a (J6/JFH-Rluc) virus or subgenomic replicons were cultured with compound (1) or 2′CMeA for 3 days in the absence of human serum albumin. After cultivation, the amount of luciferase in 2a-virus containing cells and HCV NS3 protease activity in the 2a replicon-containing cells was determined using Promega's luciferase assay and a novel time-resolved fluorescence assay, respectively.

HCV genotype 1 = assay: Phase-1 first-in-human trial, antiviral activity (HCV RNA decline); assay type: in vivo; conditions: following single-dose exposure
Description: (§3) A randomized, double-blind, placebo controlled trial was designed to evaluate the safety/tolerability, phamacokinetics and antiviral activity of single (in Part A) and multiple (in Part B) doses of Compound (1) (oleic acid solution, above) in subjects chronically infected with HCV genotype 1 (GT-1) without decompensated cirrhosis.
(§4) In ongoing Part B, four successive cohorts of 12 subjects are randomized (10:2) to receive multiple ascending doses of Compound 1 (40 mg BID, 120 mg BID, 240 mg QD, 240 mg BID) or placebo, over 8 days.

MT4 cells = assay: Cytotoxicity, CellTiter-Glo Luminescence Cell Viability assay, MT4; assay type: cell-based
[3] = Intrinsic solubility and pH solubility profile; assay type: physicochemical; conditions: pH 7.3
HepG2 cells = assay: Cytotoxicity, CellTiter-Glo Luminescence Cell Viability assay, HepG2; assay type: cell-based
SL3 cells = assay: Cytotoxicity, CellTiter-Glo Luminescence Cell Viability assay, SL3; assay type: cell-based; conditions: HCV replicon-containing cell line
Huh-7 lucneo cells = assay: Cytotoxicity, CellTiter-Glo Luminescence Cell Viability assay, Huh-7 lucneo; assay type: cell-based
[4] = system: HCV genotype 2a subgenomic replicon; assay: HCV genotype 2a subgenomic replicon in Huh-7 cells, NS3 protease activity readout; assay type: cell-based
Description: as §2

HCV replicon cells = assay: In vitro combination study with IFN-α in replicon cells (MacSynergy); assay type: cell-based; conditions: MacSynergy analysis
Description: Pegylated interteron-α (PEG-IFN-α), in combination with ribavirin, represents the current standard of care for HCV-infected patients. In vitro combination studies of compound (1) and IFN-α were performed in replicon cells. Data was analyzed using the MacSynergy template developed by Prichard and Shipman.

[5] = Phase-1 first-in-human trial, pharmacokinetics; assay type: in vivo
Description: as §3, §4

[6] = Phase-1 first-in-human trial, safety/tolerability; assay type: in vivo
Description: as §3, §4

MH4 cells = assay: Cytotoxicity, CellTiter-Glo Luminescence Cell Viability assay, MH4; assay type: cell-based; conditions: HCV replicon-containing cell line
HCV replicon = assay: Anti-HCV replicon activity compared with prior art compound of formula (4); assay type: cell-based
From the text: The anti-HCV replicon activity of compound (1) was compared to that of a prior art (WO 05/063744) compound, the compound of formula (4)

[7] = system: HCV genotype 1a (H77/neo) replicon; assay: HCV genotype 1a (H77/neo) replicon, quantitative real-time PCR assay; assay type: cell-based; conditions: 3 days, absence of HSA
Description: as §1

[8] = non-replicon-containing cell line

IFN-α
EC50 HCV 1b-lucneo (subgenomic replicon) ([1]; 3 days, absence of HSA): 2 IU/mL
EC50 HCV-2a (reporter virus) [2]: 1.2 IU/mL

Fc1ccccc1-c1nc2ccn(Cc3ccc(-c4ccc(C(F)(F)F)cc4C(F)(F)F)nn3)cc-2n1 [Compound 1, 5-({6-[2,4-bis(trifluoromethyl)phenyl]pyridazin-3-yl}methyl)-2-(2-fluorophenyl)-5H-imidazo[4,5-c]pyridine]
time of maximal antiviral effect (HCV genotype 1): 24 h
cytotoxicity in MT4 cells (MT4 cells; human): > 50,000 nM
pH solubility profile, geometric mean (3 lots) [3]: 0.7 micrograms/ml
selectivity index (CC50/EC50) ([1]; CC50 in cell lines versus EC50 in HCV-1b and HCV-1a replicons): 13,000-80,000
cytotoxicity in HepG2 cells (HepG2 cells; human): > 50,000 nM
CC50 (SL3 cells): > 50 µM
toxic effects at the highest concentration tested (Huh-7 lucneo cells; 50 μM, any of the cell lines Huh-7, SL3, MH4, HepG2, MT4): No toxic effects
cytotoxicity in Huh-7 cells (Huh-7 lucneo cells; human, Huh-7 lucneo cells (HCV replicon-containing)): > 50,000 nM
EC50 ([4]; Hepatitis C virus, 72 h, Huh-7 cells, 3 days, absence of HSA, read-out: EC50 HCV 2a (subgenomic replicon)): 21.9 ± 19 µM
EC50 ([4]; Hepatitis C virus, Huh-7, 72 h, read-out: EC50 2a subgenomic replicon model): 21.9 µM
anti-HCV replicon activity against genotype 2a ([4]; compared with genotypes 1a and 1b): substantially less active
interaction between compound (1) and IFN-α (HCV replicon cells): additive interaction
mean concentration 24 hours after dosing relative to protein binding adjusted in vitro HCV GT-1b Replicon EC50 ([5]; 240 mg fasted single dose): ~7 fold
increase of systemic exposure when administered with a high fat meal ([5]; HCV GT-1 infected subjects, single dose with food versus fasted): approximately 2 fold
tolerability of single doses ([6]; single doses 40-480 mg, HCV GT-1 infected subjects, no serious or treatment-limiting adverse events): well tolerated
treatment emergent laboratory abnormalities ([6]; single doses, Part A): no Grade 3 or 4 treatment emergent laboratory abnormalities
most common adverse event ([6]; single doses, Part A, all AEs mild except one moderate headache): headache
CC50 (MH4 cells): > 50 µM
times more potent than the compound of formula (4) (HCV replicon): about 330 times

C[C@@]1(O)[C@H](O)[C@@H](CO)O[C@H]1n1cnc2c(N)ncnc21 [2′CMeA, 2′C-methyl adenosine, reference compound]
CC50 (MT4 cells; [8]): 3.5 ± 1.9 µM
EC50 [7]: 170 nM
EC50 ([1]; 3 days, absence of HSA, read-out: EC50 HCV 1b-lucneo (subgenomic replicon)): 175 ± 70 nM
EC50 ([1]; read-out: EC50 HCV 1b-lucneo 40 mg/mL HSA, 3 days, presence of 40 mg/mL human serum albumin): 250 nM
EC50 ([2]; read-out: EC50 HCV-2a (reporter virus)): 194 ± 26 nM
CC50 (HepG2 cells; [8]): 24.3 ± 2.1 µM
CC50 (SL3 cells): 3.9 µM
CC50 (Huh-7 lucneo cells; HCV replicon-containing cell line): 7.2 ± 6 µM
EC50 ([4]; Huh-7 cells, 3 days, absence of HSA, read-out: EC50 HCV 2a (subgenomic replicon)): 1.61 ± 1.1 µM
CC50 (MH4 cells): 16 µM
